In patent publication US8497352B2, “Use of Wnt5-α peptide derivates for the treatment of melanoma and gastric cancer” (Wntresearch AB, priority 2008, dated 2013):
Where no end group is shown, it is not given here. The star is where a group is joined. For = O=C*

Experiments:
HTB63 melanoma cells [1] = test: Wound-healing assay (migration), HTB63 cells; type: cell-based, human; conditions: 10 μM SB431542, serum-free medium
Description: (§1) Cells were plated in 12 well plates and allowed to grow into a confluent layer in complete RPMI (for A2058 cells) or complete McCoy's 5A medium (for HTB63 cells). As indicated, cells were pre-incubated with the Box5 peptide (100 μM) or control solvent for 40 min with continuous agitation. A wound was then inflicted by making a scratch through the confluent layer of cells with a pipette tip. During the migration period of the assay, cells were incubated either in serum-free medium or in the case of HTB63 cells in their own serum-free-conditioned medium collected from cells cultured for 48 h and used within 2 days after collection. The exact conditions of each experiment are described above. To avoid loss of activity, cell medium was changed after 24 hours. A picture for each scratch was taken in the same area of cells at 0, 16, 24, 40 and 48 hours, and wound healing was measured as percentage of wound area closed. For each experimental condition wound healing was analysed in triplicate. All data were based on 3 to 8 separate experiments as indicated.

HTB63 melanoma cells [2] = test: BD Matrigel invasion chamber assay, HTB63 cells; type: cell-based, human; conditions: 10 μM SB431542, 24 hours
Description: Cell invasion was analyzed using the BD Matrigel™ invasion chamber assay (BD Biosciences, Bedford, Mass.). Prior to the initiation of each experiment, the cells were detached with Versene and re-suspended as single cells in serum-free RPMI medium. As indicated, cells were pre-incubated with the Box5 peptide (100 μM) or control solvent for 40 min with continuous agitation. An aliquot of the cell suspension containing 25,000 cells and 100 μM Box5 or control solvent was then added to the upper transwell chamber, and the lower chamber was filled with serum-containing (10%) medium. The invasion chambers were shaken horizontally for 5 min to ensure even distribution of the cells in suspension and subsequently across the membrane surface. The cells were allowed to invade for the periods of time indicated at 37° C. in a humidified atmosphere of 5% CO2. The medium was discarded and cells were fixed in 4% paraformaldehyde for 10 min. The cells were stained with 0.5% crystal violet in 20% methanol for 10 min and the non-invading cells on the inner side of the membrane were removed with a cotton-tipped applicator. The membrane was cut out of the chamber using a scalpel blade and the stained cells on the lower chamber side of the membrane were counted.

[3] = system: Wnt-5a protein expression; test: Wnt-5a protein expression in HTB63 cells, Western blot; type: cell-based, human
Description: The cells were either directly lysed in 1× Laemmli buffer containing DTT and boiled for 10 min, or lysed in buffer containing 50 mM Tris-HCl (pH 7.5), 1% Triton X-100, 100 mM NaCl, 10 mM MgCl2, 20% glycerol, 1 mM Na3VO4, and protease inhibitors (20 μg/ml aprotinin, 1 μg/ml leupeptin, 2.5 mM benzamidine, and 2 mM pefabloc). Cell treated with lysis buffer were centrifuged at 15,000 rpm for 5 min at 4° C. The protein content in each sample was determined and adjusted to ensure equal loading of protein in each lane. Thereafter, 50 mM DTT and 5× concentrated Laemmli buffer was added and the samples boiled for 5 min. The samples were separated by SDS polyacrylamide gel electrophoresis and subsequently transferred to PVDF membranes. For immunoblotting the membranes were blocked in PBS supplemented with 0.2% Tween 20 and 1% non-fat milk for Wnt-5a or 3% non-fat milk as for all other antibodies for 1 h. Thereafter the membranes were incubated for 1 h at room temperature or overnight at 4° C. with the indicated primary Ab (1:25,000 for β-actin; 1:1,000 for Wnt-5a and 1:1,000 for TGF-β1) in 2% non-fat milk or 1.5% BSA. After extensive washing in PBS with 0.2% Tween, the membranes were incubated for 1 h with a horseradish peroxidase-conjugated secondary Ab in 2% non-fat milk or 1.5% BSA and again extensively washed. Finally, the Ab-antigen complexes were detected using enhanced chemiluminescence. […]

A2058 melanoma cells = test: Wound-healing assay (migration), A2058 cells; type: cell-based, human; conditions: 50 μM Foxy5, 0, 16, 24, 40 and 48 hours
Description: as §1

breast cancer cell = conditions: breast tumor cells lacking endogenous Wnt-5a; cited from earlier work
breast cancer metastasis = conditions: mouse model; cited from earlier work

Compound | Effect on migration of HTB63 cells (HTB63 melanoma cells [1]) | Effect on migration of HTB63 cells in the invasion assay (HTB63 melanoma cells [2]) | Endogenous Wnt-5a protein expression in HTB63 cells ([3]; 10 μM SB431542, 4 days) | Endogenous Wnt-5a protein expression in HTB63 cells ([3]; 10 μM SB431542, 5 days) | Effect on migration of A2058 cells (A2058 melanoma cells) | Signaling and inhibition of breast cancer cell migration (breast cancer cell) | Breast cancer metastasis (breast cancer metastasis)
NC(=O)c1ccc(-c2nc(-c3ccc4c(c3)OCO4)c(-c3ccccn3)[nH]2)cc1 [SB431542] | inhibited | stimulated | significantly reduced | almost abolished | – | – | –
Foxy5: Met-Asp-Gly-Cys-Glu-Leu hexapeptide formylated at the N-terminal Met, agonist of Wnt-5a signalling (For-MDGCEL) | – | – | – | – | promotes | mimic the effects of Wnt-5a | inhibits
